Experimental data reported in patent US20260325645A1, “IMPROVEMENTS IN OR RELATING TO COMPOSITIONS FOR IMPROVEMENT OF PHOTODYNAMIC THERAPY” (SYDERMA LTD, priority 2023, published 2026).
“Also recorded” adds a separate entry of the source. Each block holds one molecule with its values, some of them ahead of it.

Experiments:
ATR = settings: reference 10; cited from earlier work
ATM = settings: reference 10; cited from earlier work
[1] = references 11, 12, 13; cited from earlier work
active lesions (acne) = assay: Combined analysis of acne lesion clearance, Examples 3, 6 and 7 (FIG. 6); type: in vivo, human; settings: pre- and final post-treatment data of Examples 3, 6 and 7; P 0.005 paired, two-tailed T-test
[2] = clinical trials; reference 17; cited from earlier work
acne = assay: Theobromine treatment of acne (comparative Examples 8-11); type: in vivo, human; settings: 0.5% theobromine topical; for improvement of acne: data not shown
Protocol: (§1) A patient presented with acne bilaterally on their face. The acne presented as active inflammatory reaction or as visible white liquid-filled extrusions. For the purposes of the test, the affected area was split into two sections, left cheek and right cheek. The right face was treated with 0.5% theobromine topical preparation solution. The theobromine solution was prepared in 25% ethanol and 50% glycerol, adjusted to pH 8 via 100 mM sodium hydrogen carbonate solution.
For the purposes of the treatment, theobromine solution was applied to the right side of the face in a thin film using 100-200 μL of the solution (2-4 drops). The solution was left to dry and penetrate the skin for 20 minutes, after which both sides of the face were covered in the photosensitizer cream as per manufacturer's instructions, using 1-1.5 g of cream. The cream was left to penetrate the skin for 5-10 minutes and the patient was asked not to wash their face for 2 hours.
The patient was assessed first prior to treatment and subsequently 1 month after for the success and quantification of active acne on each side of the face by a qualified dermatologist.
as §1, with “The left” for “The right”
For the purposes of the treatment, theobromine solution was applied to the left side of the face in a thin film using 100-200 μL of the solution (2-4 drops). […]
The patient was assessed first prior to treatment and subsequently 6 weeks after for the success and quantification of active acne on each side of the face by a qualified dermatologist.

actinic keratoses = assay: Theobromine alone on actinic keratoses (comparative Examples 4 and 5); type: in vivo, human; settings: 0.5% theobromine solution applied once, 1 month later
Protocol: A person presented with actinic keratoses on their scalp. Three actinic keratoses were selected by a qualified dermatologist and treated once with 0.5% theobromine topical preparation solution. The theobromine solution was prepared in 25% ethanol and 50% glycerol, adjusted to pH 8 via 100 mM sodium hydrogen carbonate solution. For treatment, theobromine solution was applied to the selected lesions of the scalp in a thin aqueous film using 50 μL of the solution per lesion (1 drop). The solution was left to dry and permeate the skin for 20 minutes. The position of the lesions was marked with a water-soluble marker and the lesions were photographed. The patient was reviewed 1 month later by a qualified dermatologist and the lesions were compared with the baseline photographs.
A person presented with actinic keratoses on their face and scalp. An actinic keratosis was selected by a qualified dermatologist on their right cheek and treated once with 0.5% theobromine topical preparation solution. The theobromine solution was prepared in 25% ethanol and 50% glycerol, adjusted to pH 8 via 100 mM sodium hydrogen carbonate solution. For treatment, theobromine solution was applied to the selected lesions of the […] in a thin aqueous film using 50 μL of the solution per lesion (1 drop). The solution was left to dry and permeate the skin for 20 minutes. […]

DNA repair = settings: in vitro, through modulating the activity of ATM/ATR kinases, as well as PARP; references 10,11,12,14; cited from earlier work
PARP = settings: only compound with activity on PARP in addition to ATM and ATR; cited from earlier work

SMILES: Cn1c(=O)c2c(ncn2C)n(C)c1=O [caffeine]
ATR inhibition (ATR): inhibitors of both ATM and ATR | ATM inhibition (ATM): inhibitors of both ATM and ATR | radiosensitising activity [1]: radiosensitisers

SMILES: COC(=O)CCC(=O)CN [methyl aminolevulinate]
average clearance of active lesions (active lesions (acne)): 32%

SMILES: CC(=O)CCCCn1c(=O)c2c(ncn2C)n(C)c1=O [pentoxyphilline]
clinical benefit as radiosensitiser [2]: failed to provide consistent benefits | radiosensitising activity [1]: radiosensitisers

redness or soreness (actinic keratoses): No redness or soreness were observed
SMILES: Cn1cnc2c1c(=O)[nH]c(=O)n2C [theobromine]
ATR inhibition (ATR): inhibitors of both ATM and ATR | ATM inhibition (ATM): inhibitors of both ATM and ATR | patient-reported adverse effects (acne; 1 month (Examples 8, 9, 10) or 6 weeks (Example 11)): No patient-reported adverse effects | improvement of acne (acne; 1 month after (Examples 8, 9, 10)): did not improve acne | improvement of acne (acne; 6 weeks after (Example 11)): did not improve acne | improvement of actinic keratosis (actinic keratoses; no photosensitizer): No improvement of actinic keratoses was observed; also recorded: No improvement of actinic keratosis was observed | inhibition of DNA repair (DNA repair): inhibit DNA repair in vitro | PARP inhibitory activity (PARP): measurable PARP inhibitory activity | radiosensitising activity [1]: radiosensitisers

SMILES: Cn1c(=O)c2[nH]cnc2n(C)c1=O [theophylline]
radiosensitising activity [1]: radiosensitisers
